Measured values from patent publication US20120129842A1, “BISTHIAZOLE INHIBITORS OF PRO-MATRIX METALLOPROTEINASE ACTIVATION” (priority 2010, published 2012).
Where a name gives a salt, the structure may show the parent alone.

Assays:
[1] = target: T1, full-length proMMP9(1-707) (SEQ ID NO:1) (Homo sapiens, UniProt P14780, R574P); assay: proMMP9/MMP3 P126 Activation Assay; format: biochemical; settings: 20 nM proMMP9, 20 nM MMP3, 80 min 37° C.
T1 construct: made in house; host or cells: HEK293 (proMMP9, secreted); E. coli (MMP3)
T1 sequence (P14780 20-707 R574P): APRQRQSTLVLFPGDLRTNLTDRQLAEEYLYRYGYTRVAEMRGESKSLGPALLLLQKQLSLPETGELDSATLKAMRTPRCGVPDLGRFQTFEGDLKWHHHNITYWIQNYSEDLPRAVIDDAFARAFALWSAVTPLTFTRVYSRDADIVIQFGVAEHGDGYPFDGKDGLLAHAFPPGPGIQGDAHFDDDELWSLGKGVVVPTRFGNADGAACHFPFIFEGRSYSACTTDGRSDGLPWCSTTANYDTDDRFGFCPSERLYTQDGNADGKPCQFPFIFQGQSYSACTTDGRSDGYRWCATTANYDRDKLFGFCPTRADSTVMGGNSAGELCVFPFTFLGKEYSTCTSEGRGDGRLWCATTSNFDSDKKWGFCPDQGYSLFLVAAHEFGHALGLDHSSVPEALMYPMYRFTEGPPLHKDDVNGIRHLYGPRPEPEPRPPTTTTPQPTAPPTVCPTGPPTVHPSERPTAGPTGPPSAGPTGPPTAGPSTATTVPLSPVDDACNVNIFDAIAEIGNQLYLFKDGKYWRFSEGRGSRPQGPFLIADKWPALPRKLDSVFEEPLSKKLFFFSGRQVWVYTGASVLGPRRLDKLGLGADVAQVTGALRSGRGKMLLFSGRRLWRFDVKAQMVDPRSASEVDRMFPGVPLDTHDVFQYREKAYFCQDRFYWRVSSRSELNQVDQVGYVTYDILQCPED
Procedure: The reaction volume was 50 μL. […] Reactivity of residual MMP3 towards P-126 substrate was minimal under these conditions.

[2] = target: proMMP13(1-268) (SEQ ID NO:7) (Homo sapiens, UniProt P45452); assay: ThermoFluor binding assay with proMMP13(1-268); set-up: 6xHis (C); made in house; settings: pH 7.0
In short: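 Thermal shift binding with 3.5 μM protein and 25 μM 1,8-ANS in 50 mM HEPES pH 7.0, 100 mM NaCl, 0.001% Tween-20, 2.5 mM MgCl2, 300 μM CaCl2. Samples were heated 40 to 90 °C at 1 °C/min, fluorescence read at 500 nm. Tm shifts across an 11-point DMSO dilution series were fitted with DSC-derived thermodynamic parameters.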

[3] = target: T2, proMMP9(20-445;ΔFnII) (SEQ ID NO:6) (Homo sapiens, UniProt P14780, DEL216-390); assay: ThermoFluor binding assay with proMMP9(20-445;ΔFnII); settings: pH 7.0
T2 construct: start methionine (N); made in house; host or cells: E. coli BL21(DE3) RIL
T2 sequence (P14780 with tags, fused parts or gaps DEL216-390): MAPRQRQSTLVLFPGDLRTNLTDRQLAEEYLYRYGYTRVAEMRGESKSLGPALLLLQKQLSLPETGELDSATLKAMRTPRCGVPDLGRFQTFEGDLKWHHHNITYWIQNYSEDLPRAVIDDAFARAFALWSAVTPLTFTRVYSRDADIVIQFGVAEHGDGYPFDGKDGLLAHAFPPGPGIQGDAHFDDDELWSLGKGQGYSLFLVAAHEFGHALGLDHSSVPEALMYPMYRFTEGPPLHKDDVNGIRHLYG
In short: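 proMMP9(20-445;ΔFnII) at 2.8 μM with 50 μM 1,8-ANS in 50 mM HEPES pH 7.0, 100 mM NaCl, 0.001% Tween-20, 2.5 mM MgCl2, 300 μM CaCl2; compounds serially diluted in DMSO. Heated 40–90 °C at 1 °C/min, fluorescence read at 500±25 nm. Tm fit by standard equations; binding fit using DSC/TF-derived thermodynamic parameters.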

[4] = target: T3, proMMP9(67-444;ΔFnII) (SEQ ID NO:5) (Homo sapiens, UniProt P14780, DEL216-390); assay: ThermoFluor binding assay with proMMP9(67-444;ΔFnII); settings: pH 7.0
T3 construct: start methionine (N); made in house; host or cells: E. coli BL21(DE3) RIL
T3 sequence (P14780 with tags, fused parts or gaps DEL216-390): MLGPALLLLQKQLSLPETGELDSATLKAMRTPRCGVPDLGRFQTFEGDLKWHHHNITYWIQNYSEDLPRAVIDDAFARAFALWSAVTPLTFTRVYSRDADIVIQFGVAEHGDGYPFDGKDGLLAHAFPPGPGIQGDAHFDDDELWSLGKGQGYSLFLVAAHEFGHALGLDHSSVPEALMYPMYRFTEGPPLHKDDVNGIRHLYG
In short: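 Thermal shift binding with 3.5 μM proMMP9(67-444;ΔFnII) and 50 μM 1,8-ANS in 50 mM HEPES pH 7.0, 100 mM NaCl, 2.5 mM MgCl2, 300 μM CaCl2, 0.001% Tween-20, with serially diluted compound. Heated 40 to 90° C at 1° C/min; fluorescence-derived Tm fitted using DSC/ThermoFluor thermodynamic parameters.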

| IC50 [1] [nM] | Kd [2] [nM] | Kd [3] [nM] | Kd [4] [nM] | Structure (SMILES) |
| --- | --- | --- | --- | --- |
| 550 | 240 | 1200 | 52 | CCOc1ccc(-c2ncco2)cc1Nc1nc(-c2sc(N)nc2C)cs1 [Example 79, N^2-(2-Ethoxy-5-oxazol-2-yl-phenyl)-4′-methyl-[4,5′]bithiazolyl-2,2′diamine.HBr] |
| 650 | 3600 | 23000 | 1800 | CCOc1ccc(-c2ncco2)cc1Nc1nc(-c2sc(C)nc2C)cs1 [Example 80, (2′,4′-Dimethyl-[4,5′]bithiazolyl-2-yl)-(2-ethoxy-5-oxazol-2-yl-phenyl)-amine.TFA] |
| 640 | 370 | 520 | 620 | CCOC(=O)c1ccc(OCC)c(Nc2nc(-c3sc(N)nc3C)cs2)c1 [Example 81, 3-(2′-Amino-4′-methyl-[4,5′]bithiazolyl-2-ylamino)-4-ethoxy-benzoic acid ethyl ester.TFA] |
| 480 | 1500 | 3900 | 490 | CCOC(=O)c1ccc(OCC)c(Nc2nc(-c3sc(NC(C)=O)nc3C)cs2)c1 [Example 83, 3-(2′-Acetylamino-4′-methyl-[4,5′]bithiazolyl-2-ylamino)-4-ethoxy-benzoic acid ethyl ester.HBr] |
| 270 | 43000 | 3500 | 750 | COc1ccc(C(N)=O)cc1Nc1nc(-c2sc(NC(C)=O)nc2C)cs1 [Example 85, 3-(2′-Acetylamino-4′-methyl-[4,5′]bithiazolyl-2-ylamino)-4-methoxy-benzamide.HBr] |
| 610 | 3400 | 1200 | 200 | COC(=O)c1ccc(OC)c(Nc2nc(-c3sc(N)nc3C)cs2)c1 [Example 86, 3-(2′-Amino-4′-methyl-[4,5′]bithiazolyl-2-ylamino)-4-methoxy-benzoic acid methyl ester TFA] |
| 1200 | 3000 | 400 | 380 | COc1ccc(C(N)=O)cc1Nc1nc(-c2sc(N)nc2C(F)(F)F)cs1 [Example 87, 3-(2′-Amino-4′-trifluoromethyl-[4,5′]bithiazolyl-2-ylamino)-4-methoxy-benzamide.TFA] |
| 380 | 950 | 100 | 650 | Cc1nc(N(C)C)sc1-c1csc(Nc2cc(C(N)=O)ccc2OC(C)C)n1 [Example 88, 3-(2′-Dimethylamino-4′-methyl-[4,5′]bithiazolyl-2-ylamino)-4-isopropoxy-benzamide.TFA] |
| 330 | 710 | 63 | 390 | Cc1nc(N2CCOCC2)sc1-c1csc(Nc2cc(C(N)=O)ccc2OC(C)C)n1 [Example 89, 4-Isopropoxy-3-(4′-methyl-2′-morpholin-4-yl-[4,5′]bithiazolyl-2-ylamino)-benzamide.TFA] |
| 100 | 680 | 37 | 170 | Cc1nc(N2CCN(C)CC2)sc1-c1csc(Nc2cc(C(N)=O)ccc2OC(C)C)n1 [Example 90, 4-Isopropoxy-3-[4′-methyl-2′-(4-methyl-piperazin-1-yl)-[4,5′]bithiazolyl-2-ylamino]-benzamide.TFA] |
| 400 | 6100 | 310 | 1700 | CCN(CC)c1nc(C)c(-c2csc(Nc3cc(C(N)=O)ccc3OC(C)C)n2)s1 [Example 94, 3-(2′-Diethylamino-4′-methyl-[4,5′]bithiazolyl-2-ylamino)-4-isopropoxy-benzamide.TFA] |
| 410 | 4100 | 220 | 2800 | Cc1nc(Nc2cccnc2)sc1-c1csc(Nc2cc(C(N)=O)ccc2OC(C)C)n1 [Example 95, 4-Isopropoxy-3-[4′-methyl-2′-(pyridin-3-ylamino)-[4,5′]bithiazolyl-2-ylamino]-benzamide.TFA] |
| ~5000 | 16000 | 280 | 3800 | Cc1nc(Nc2ccccn2)sc1-c1csc(Nc2cc(C(N)=O)ccc2OC(C)C)n1 [Example 96, 4-Isopropoxy-3-[4′-methyl-2′-(pyridin-2-ylamino)-[4,5′]bithiazolyl-2-ylamino]-benzamide.TFA] |
| 620 | 2300 | > 95000 | 670 | Cc1nc(-c2ccncc2)sc1-c1csc(Nc2cc(C(N)=O)ccc2OC(C)C)n1 [Example 98, 4-Isopropoxy-3-(4′-methyl-2′-pyridin-4-yl-[4,5′]bithiazolyl-2-ylamino)-benzamide.TFA] |
| 590 | 2400 | 270 | 1100 | CCOC(=O)c1nc(C)c(-c2csc(Nc3cc(C(N)=O)ccc3OC(C)C)n2)s1 [Example 99, 2-(5-carbamoyl-2-isopropoxy-phenylamino)-4′-methyl-[4,5′]bithiazolyl-2′-carboxylic acid ethyl esterHBr] |
| 220 | 1400 | 760 | 320 | Cc1nc(C(=O)O)sc1-c1csc(Nc2cc(C(N)=O)ccc2OC(C)C)n1 [Example 100, 2-(5-Carbamoyl-2-isopropoxy-phenylamino)-4′-methyl-[4,5′]bithiazolyl-2′-carboxylic acid] |
| 170 | 510 | 290 | 1100 | Cc1nc(C(=O)N2CCN(C)CC2)sc1-c1csc(Nc2cc(C(N)=O)ccc2OC(C)C)n1 [Example 101, 4-Isopropoxy-3-[4′-methyl-2′-(4-methyl-piperazine-1-carbonyl)-[4,5′]bithiazolyl-2-ylamino]-benzamide.TFA] |
| 130 | 660 | 700 | 730 | CCN1CCN(C(=O)c2nc(C)c(-c3csc(Nc4cc(C(N)=O)ccc4OC(C)C)n3)s2)CC1 [Example 102, 3-[2′-(4-Ethyl-piperazine-1-carbonyl)-4′-methyl-[4,5′]bithiazolyl-2-ylamino]-4-isopropoxy-benzamide.TFA] |
| 97 | 450 | 480 | 1000 | Cc1nc(C(=O)N2CCN(C(C)C)CC2)sc1-c1csc(Nc2cc(C(N)=O)ccc2OC(C)C)n1 [Example 103, 4-Isopropoxy-3-[2′-(4-isopropyl-piperazine-1-carbonyl)-4′-methyl-[4,5]bithiazolyl-2-ylamino]-benzamide.TFA] |
| 130 | 530 | 460 | 610 | Cc1nc(C(=O)N2CCCN(C)CC2)sc1-c1csc(Nc2cc(C(N)=O)ccc2OC(C)C)n1 [Example 104, 4-Isopropoxy-3-[4′-methyl-2′-(4-methyl-[1,4]diazepane-1-carbonyl)-[4,5′]bithiazolyl-2-ylamino]-benzamide.TFA] |
| 910 | 2200 | 1200 | 500 | Cc1nc(C(=O)N(C)C)sc1-c1csc(Nc2cc(C(N)=O)ccc2OC(C)C)n1 [Example 106, 2-(5-Carbamoyl-2-isopropoxy-phenylamino)-4′-methyl-[4,5′]bithiazolyl-2′-carboxylic acid dimethylamide.TFA] |
| 150 | 540 | 200 | 520 | Cc1nc(C(=O)N(C)CCN(C)C)sc1-c1csc(Nc2cc(C(N)=O)ccc2OC(C)C)n1 [Example 107, 2-(5-Carbamoyl-2-isopropoxy-phenylamino)-4′-methyl-[4,5′]bithiazolyl-2′-carboxylic acid (2-dimethylamino-ethyl)-methyl-amide.TFA] |
| 1700 | 320 | 310 | > 95000 | Cc1nc(C(=O)N2CCN(C3CCCCC3)CC2)sc1-c1csc(Nc2cc(C(N)=O)ccc2OC(C)C)n1 [Example 108, 3-[2′-(4-Cyclohexyl-piperazine-1-carbonyl)-4′-methyl-[4,5′]bithiazolyl-2-ylamino]-4-isopropoxy-benzamide.TFA] |
